Measurements: PMC4893628, “Chalcone-based Selective Inhibitors of a C4 Plant Key Enzyme as Novel Potential Herbicides” (Scientific Reports, 2016)
Read-outs that look alike come from different tables or passages of the source.

Tests used:
[1] = system: Pseudomonas putida KT2440; assay: Bacterial growth in microscale cultivation, P. putida; assay type: cell-based; conditions: for activity at 5 µM / activity at 50 µM / activity at 500 µM / activity at 4 µM / activity at 40 µM / activity at 400 µM / activity at 55 µM / activity at 550 µM: Pseudomonas putida; for Lag Phase / activity at 4 µM / activity at 40 µM / activity at 400 µM / activity at 55 µM / activity at 550 µM: relative to control
Procedure: The following bacteria were cultivated in the presence of trans-chalcone derived inhibitors: Corynebacterium glutamicum ATCC13032[43], Escherichia coli K-12 MG1655[44], Pseudomonas putida KT2440[45], and Bacillus subtilis 168[46]. The growth of these bacteria was monitored in flower-well plates shaken at 1200 rpm as backscatter at 620 nm (gain 20) using a BioLector® microscale cultivation system (m2p labs, Baesweiler, Germany). For further experimental details please refer to the Supplementary Information.
medium or the appropriate minimal medium and shaken at 140 rpm overnight. For inoculation of
the main culture, cells equivalent to an optical density at 600 nm of 0.5 (C. glutamicum, E. coli,
and P. putida) or 0.25 (B. subtilis) in 800 µL medium were washed and resuspended in fresh
media. Inhibitor substances were dissolved in DMSO and added to the media to a final
Since the least polar trans-chalcone and 2’-hydroxychalcone precipitated in the growth media at
the highest concentrations, the maximal concentration of these compounds was reduced to 400
µM and 100 µM, respectively. The final backscatter at 620 nm, the growth rate (h-1), and the
duration of the lag phase of all cultures were determined in a BioLector microscale cultivation
system in comparison to negative controls supplemented with the solvent DMSO. A longer lag

F. pringlei PEPC = target: T1, F. pringlei PEPC (Flaveria pringlei, UniProt Q01647); assay: PEPC coupled spectrophotometric assay, C3 PEPC; assay type: biochemical
T1 construct: the full-length ppcA gene of PEPC from F. trinervia (EMBL-Bank X61304) and F. pringlei (EMBL-Bank Z48966) were cloned in pETEV16b; made in house; host or cells: Escherichia coli BL21-Gold(DE3)
T1 sequence (Q01647 1-967): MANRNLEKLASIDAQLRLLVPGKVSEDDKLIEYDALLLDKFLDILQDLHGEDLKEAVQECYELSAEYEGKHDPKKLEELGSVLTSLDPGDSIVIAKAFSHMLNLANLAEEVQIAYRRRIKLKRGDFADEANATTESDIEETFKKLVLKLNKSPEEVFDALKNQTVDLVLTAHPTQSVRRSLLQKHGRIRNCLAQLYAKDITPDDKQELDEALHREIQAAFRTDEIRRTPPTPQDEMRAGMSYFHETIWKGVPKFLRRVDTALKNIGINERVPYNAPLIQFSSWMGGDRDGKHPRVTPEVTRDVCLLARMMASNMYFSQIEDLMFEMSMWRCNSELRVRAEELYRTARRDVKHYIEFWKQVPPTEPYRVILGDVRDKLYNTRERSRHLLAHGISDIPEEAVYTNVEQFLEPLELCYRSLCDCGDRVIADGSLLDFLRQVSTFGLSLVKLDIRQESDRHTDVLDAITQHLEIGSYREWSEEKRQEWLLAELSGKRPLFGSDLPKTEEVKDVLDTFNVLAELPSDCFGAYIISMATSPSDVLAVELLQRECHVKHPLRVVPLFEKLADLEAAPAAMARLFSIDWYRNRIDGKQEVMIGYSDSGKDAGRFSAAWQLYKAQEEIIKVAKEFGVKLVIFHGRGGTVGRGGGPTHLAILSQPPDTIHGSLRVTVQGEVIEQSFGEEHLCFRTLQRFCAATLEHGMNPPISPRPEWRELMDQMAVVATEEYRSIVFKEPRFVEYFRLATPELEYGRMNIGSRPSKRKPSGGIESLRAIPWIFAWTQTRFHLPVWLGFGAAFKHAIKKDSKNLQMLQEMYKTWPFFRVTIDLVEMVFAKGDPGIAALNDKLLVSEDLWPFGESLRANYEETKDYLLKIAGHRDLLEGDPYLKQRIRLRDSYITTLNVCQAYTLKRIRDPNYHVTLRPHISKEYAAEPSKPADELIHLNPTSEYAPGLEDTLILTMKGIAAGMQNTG
Procedure: The IC50 values of small molecule compounds on F. pringlei and F. trinervia PEPCs were determined using PEPC coupled spectrophotometric assay. The amount of NADH oxidized by NADH-malate dehydrogenase was measured by the decrease in absorbance at 340 nm in a Beckman DU-800 spectrophotometer, thus the value is in proportion to the corresponding substrate conversion of the enzyme. The reaction mixture included the PEPC enzymes (0.05 U), NADH (150 μM), malate dehydrogenase (2 U) and different concentration of compounds in the buffer containing 50 mM HEPES/KOH pH 7.5, 10 mM MgCl2, 10 mM KHCO3 in a final volume of 600 μl at 25 °C. The reactions were started by adding two folds of the Km value of PEP for each enzyme. The data were analyzed using GraFit (Erithacus Software, UK).

[2] = KT2440, complex medium, 4 µM, read-out: Final Backscatter
[3] = KT2440, complex medium, 4 µM, read-out: Growth rate
[4] = KT2440, complex medium, 40 µM, read-out: Final Backscatter
[5] = KT2440, complex medium, 40 µM, read-out: Growth rate
[6] = KT2440, complex medium, 400 µM, read-out: Final Backscatter
[7] = KT2440, complex medium, 400 µM, read-out: Growth rate
[8] = KT2440, minimal medium, 4 µM, read-out: Final Backscatter
[9] = KT2440, minimal medium, 4 µM, read-out: Growth rate
[10] = KT2440, minimal medium, 40 µM, read-out: Final Backscatter
[11] = KT2440, minimal medium, 40 µM, read-out: Growth rate
[12] = KT2440, minimal medium, 400 µM, read-out: Final Backscatter
[13] = KT2440, minimal medium, 400 µM, read-out: Growth rate
[14] = read-out: IC50 F. pringlei PEPC

O=C(/C=C/c1ccccc1)c1ccccc1O [Compound 2, 2′-Hydroxychalcone]
activity at 5 µM ([1]; KT2440, read-out: Final Backscatter, complex medium, 5 µM, relative to control): 98% | activity at 50 µM ([1]; KT2440, read-out: Final Backscatter, complex medium, 50 µM, relative to control): 101% | activity at 500 µM ([1]; KT2440, read-out: Final Backscatter, complex medium, 500 µM, relative to control): 102% | activity at 5 µM ([1]; KT2440, read-out: Final Backscatter, minimal medium, 5 µM, relative to control): 96.6% | activity at 50 µM ([1]; KT2440, read-out: Final Backscatter, minimal medium, 50 µM, relative to control): 98% | activity at 500 µM ([1]; KT2440, read-out: Final Backscatter, minimal medium, 500 µM, relative to control): 111% | activity at 5 µM ([1]; KT2440, read-out: Growth rate, complex medium, 5 µM, relative to control): 103% | activity at 50 µM ([1]; KT2440, read-out: Growth rate, complex medium, 50 µM, relative to control): 102% | activity at 500 µM ([1]; KT2440, read-out: Growth rate, complex medium, 500 µM, relative to control): 189% | activity at 5 µM ([1]; KT2440, read-out: Growth rate, minimal medium, 5 µM, relative to control): 96% | activity at 50 µM ([1]; KT2440, read-out: Growth rate, minimal medium, 50 µM, relative to control): 99.3% | activity at 500 µM ([1]; KT2440, read-out: Growth rate, minimal medium, 500 µM, relative to control): 153% | Lag Phase ([1]; complex medium, 5 µM): 101,0% | Lag Phase ([1]; complex medium, 50 µM): 102,6% | Lag Phase ([1]; complex medium, 500 µM): 110,8% | Lag Phase ([1]; minimal medium, 5 µM): 100,0% | Lag Phase ([1]; minimal medium, 50 µM): 100,6% | Lag Phase ([1]; minimal medium, 500 µM): 100,0% | IC50 (F. pringlei PEPC; IC50 F. pringlei PEPC): 76.3 ± 1.9 µM

O=C(/C=C/c1ccc(O)cc1)c1ccccc1O [Compound 3, 2′,4-Dihydroxychalcone]
activity at 4 µM [1, 2]: 99.6% | activity at 4 µM [1, 3]: 103% | activity at 40 µM [1, 4]: 103% | activity at 40 µM [1, 5]: 106% | activity at 400 µM [1, 6]: 99.5% | activity at 400 µM [1, 7]: 108% | activity at 4 µM [1, 8]: 97.4% | activity at 4 µM [1, 9]: 95.3% | activity at 40 µM [1, 10]: 101% | activity at 40 µM [1, 11]: 97.1% | activity at 400 µM [1, 12]: 110% | activity at 400 µM [1, 13]: 106% | Lag Phase ([1]; complex medium, 4 µM): 97,7% | Lag Phase ([1]; complex medium, 40 µM): 98,5% | Lag Phase ([1]; complex medium, 400 µM): 98,5% | Lag Phase ([1]; minimal medium, 4 µM): 102,8% | Lag Phase ([1]; minimal medium, 40 µM): 101,6% | Lag Phase ([1]; minimal medium, 400 µM): 103,2% | IC50 (F. pringlei PEPC; [14]): 64.2 ± 2.8 µM

O=C(/C=C/c1ccccc1)c1ccc(O)cc1O [Compound 4, 2′,4′-Dihydroxychalcone]
lag phase ([1]; 400 μM): slight increase in the lag phase | activity at 4 µM [1, 2]: 97.8% | activity at 4 µM [1, 3]: 101% | activity at 40 µM [1, 4]: 102% | activity at 40 µM [1, 5]: 100% | activity at 400 µM [1, 6]: 100% | activity at 400 µM [1, 7]: 101% | activity at 4 µM [1, 8]: 102% | activity at 4 µM [1, 9]: 94.1% | activity at 40 µM [1, 10]: 102% | activity at 40 µM [1, 11]: 98.3% | activity at 400 µM [1, 12]: 107% | activity at 400 µM [1, 13]: 93.9% | Lag Phase ([1]; complex medium, 4 µM): 105,0% | Lag Phase ([1]; complex medium, 40 µM): 106,6% | Lag Phase ([1]; complex medium, 400 µM): 123,2% | Lag Phase ([1]; minimal medium, 4 µM): 108,7% | Lag Phase ([1]; minimal medium, 40 µM): 108,3% | Lag Phase ([1]; minimal medium, 400 µM): 97,7% | IC50 (F. pringlei PEPC; [14]): 53 ± 1.1 µM

O=C(/C=C/c1ccccc1)c1cc(O)ccc1O [Compound 5, 2′,5′-Dihydroxychalcone]
activity at 55 µM ([1]; KT2440, complex medium, 55 µM, read-out: Final Backscatter): 98.5% | activity at 55 µM ([1]; KT2440, complex medium, 55 µM, read-out: Growth rate): 105% | activity at 550 µM ([1]; KT2440, complex medium, 550 µM, read-out: Final Backscatter): 94.4% | activity at 550 µM ([1]; KT2440, complex medium, 550 µM, read-out: Growth rate): 118% | activity at 55 µM ([1]; KT2440, minimal medium, 55 µM, read-out: Final Backscatter): 95.5% | activity at 55 µM ([1]; KT2440, minimal medium, 55 µM, read-out: Growth rate): 99.4% | activity at 550 µM ([1]; KT2440, minimal medium, 550 µM, read-out: Final Backscatter): 96.7% | activity at 550 µM ([1]; KT2440, minimal medium, 550 µM, read-out: Growth rate): 101% | Lag Phase ([1]; complex medium, 55 µM): 99,1% | Lag Phase ([1]; complex medium, 550 µM): 105,0% | Lag Phase ([1]; minimal medium, 55 µM): 101,0% | Lag Phase ([1]; minimal medium, 550 µM): 98,0% | IC50 (F. pringlei PEPC; [14]): 105 ± 4.6 µM

O=C(/C=C/c1ccc(O)cc1)c1ccc(O)cc1O [Compound 6, 2′,4′,4-Trihydroxychalcone]
activity at 4 µM [1, 2]: 97.7% | activity at 4 µM [1, 3]: 104% | activity at 40 µM [1, 4]: 97.2% | activity at 40 µM [1, 5]: 106% | activity at 400 µM [1, 6]: 99.9% | activity at 400 µM [1, 7]: 100% | activity at 4 µM [1, 8]: 99% | activity at 4 µM [1, 9]: 104% | activity at 40 µM [1, 10]: 103% | activity at 40 µM [1, 11]: 106% | activity at 400 µM [1, 12]: 117% | activity at 400 µM [1, 13]: 104% | Lag Phase ([1]; complex medium, 4 µM): 99,4% | Lag Phase ([1]; complex medium, 40 µM): 101,7% | Lag Phase ([1]; complex medium, 400 µM): 107,3% | Lag Phase ([1]; minimal medium, 4 µM): 103,3% | Lag Phase ([1]; minimal medium, 40 µM): 105,6% | Lag Phase ([1]; minimal medium, 400 µM): 107,8% | IC50 (F. pringlei PEPC; IC50 F. pringlei PEPC): 57.8 ± 1.1 µM

O=C(/C=C/c1ccccc1O)c1ccc(O)cc1O [Compound 7, 2′,4′,2-Trihydroxychalcone]
activity at 4 µM [1, 2]: 99.1% | activity at 4 µM [1, 3]: 100% | activity at 40 µM [1, 4]: 95.3% | activity at 40 µM [1, 5]: 101% | activity at 400 µM [1, 6]: 99.9% | activity at 400 µM [1, 7]: 99.6% | activity at 4 µM [1, 8]: 101% | activity at 4 µM [1, 9]: 98.3% | activity at 40 µM [1, 10]: 100% | activity at 40 µM [1, 11]: 94.3% | activity at 400 µM [1, 12]: 99.8% | activity at 400 µM [1, 13]: 106% | Lag Phase ([1]; complex medium, 4 µM): 100,0% | Lag Phase ([1]; complex medium, 40 µM): 100,0% | Lag Phase ([1]; complex medium, 400 µM): 100,0% | Lag Phase ([1]; minimal medium, 4 µM): 111,6% | Lag Phase ([1]; minimal medium, 40 µM): 101,6% | Lag Phase ([1]; minimal medium, 400 µM): 95,6% | IC50 (F. pringlei PEPC; [14]): 64.4 ± 1.1 µM
